≈ marks a conversion by molar mass, not a printed value.

Data set [1] relates to Escherichia coli ATC-25922. Briefly: MIC, broth microdilution. It is filed as cell-based. To be noted: ATC25922. An excerpt: As used herein, the term “MIC” refers to minimum inhibitory concentrations. Minimum inhibitory concentrations may be determined by broth microdilution according to the Clinical and Laboratory Standards Institute guidelines (see, e.g., […]-A8. Methods for dilution antimicrobial susceptibility tests for bacteria that grow aerobically: approved standard, 8th Ed.; […] One example for measuring minimum inhibitory concentrations may be found in Reck et al., 2012, J. Med. Chem. 55:6916-6933, the disclosure of which is incorporated by reference. Inoculants may be incubated on blood agar plates for 18 to 24 hours. Incubation may occur at a temperature from about 35° C. to about 37° C. […] In serum supplemented experiments, the testing medium (e.g., DMSO solution) and human serum may be mixed. The ratio of testing medium to human serum may be 1:1 (vol:vol). Plates may be read by spectrophotometry at 620 nm. Unless indicated otherwise, all inhibitory concentrations recited in the specification relate to MICs. The MIC tests were based on broth microdilution method in CLSI-M7. […] Solutions of varying concentrations of DMSO were prepared in wells of a v-bottom 96-well plate (Axygen-WIPP02280). A multi-pipette was used to perform serial dilutions as necessary. From well to well, the drug concentrations were 6.4, 3.2, 1.6, 0.8, 0.4, 0.2, 0.1, 0.05, 0.025, 0.0125, 0.00625 and 0 mg/ml in DMSO. For extremely potent antibiotic, the starting concentrations were adjusted accordingly. This was the drug mother plate. Daughter plates were prepared by placing 98 μl of a testing medium into each well of a u-bottom 96-well plate (Costar 3788). An aliquot of each 2 μl solution from each well of the mother plate was then transferred into the corresponding wells of the daughter plate using a multi-pipette work station (CyBi®-SELMA). Testing media were selected based on CLSI-M7, M11 and […]. Cation adjusted Mueller Hinton Broth (CA-MHB-212322) was the testing medium for majority of bacterial species. […] The MIC values were determined and based on the standards of CLSI methods M7-A7, broth microdilution method. […]
For orientation: In broth dilution the organism is exposed to a series of concentrations in liquid medium.

Data set [2] is described as follows: Microsomal stability assay, human CLint. It is filed as in vitro ADME. Also on record: unit not given here. To be noted: human liver microsomes, 1 μM, 0.5 mg/ml microsomal protein. Here is the method: (§1) The activity profiles of compounds 17, 23, and 24 were assessed by various in vitro measurements. The minimum inhibitory concentration (MIC), MIC in the presence of normal human serum (NHS), microsome CLint, the % of free compounds following a plasma protein biding (PPB) assay, and the concentration of drug where the human-ether-à-go-go-related gene (hERG gene) channel block is halved (IC50(hERG)) were measured using standard in vitro protocols for compounds 17, 23, and 24. Unless otherwise indicated, measurements (e.g., microsomal clearance) were performed using a standard microsomal stability assay using LC/MS/MS techniques.
Test compounds were incubated at 37° C. with liver microsomes pooled from multiple donors at 1 μM in the presence of a NADPH regenerating system at 0.5 mg/ml microsomal protein. Positive of testosterone (a 3A4 substrate), propafenone (a 2D6 substrate), and diclofenac (a 2c9 substrate) were similarly incubated with microsomes in the presence of a NADPH regenerating system. Samples are removed at 0, 5, 10, 20, 30, and 60 minutes of incubation and immediately mixed with cold acetonitrile containing an internal standard (IS). Samples are then analyzed by LC/MS/MS to determine the disappearance of the test compound and are assessed based on the peak area ratios of analyte/IS (no standard curve).
Background: Microsomes from liver hold many membrane-bound enzymes, among them those of drug oxidation.

The target in data set [3] is T1, hERG Potassium Ion Channel (Homo sapiens, UniProt Q12809).
T1 construct: expressed in transfected cells
T1 sequence (Q12809 whole entry): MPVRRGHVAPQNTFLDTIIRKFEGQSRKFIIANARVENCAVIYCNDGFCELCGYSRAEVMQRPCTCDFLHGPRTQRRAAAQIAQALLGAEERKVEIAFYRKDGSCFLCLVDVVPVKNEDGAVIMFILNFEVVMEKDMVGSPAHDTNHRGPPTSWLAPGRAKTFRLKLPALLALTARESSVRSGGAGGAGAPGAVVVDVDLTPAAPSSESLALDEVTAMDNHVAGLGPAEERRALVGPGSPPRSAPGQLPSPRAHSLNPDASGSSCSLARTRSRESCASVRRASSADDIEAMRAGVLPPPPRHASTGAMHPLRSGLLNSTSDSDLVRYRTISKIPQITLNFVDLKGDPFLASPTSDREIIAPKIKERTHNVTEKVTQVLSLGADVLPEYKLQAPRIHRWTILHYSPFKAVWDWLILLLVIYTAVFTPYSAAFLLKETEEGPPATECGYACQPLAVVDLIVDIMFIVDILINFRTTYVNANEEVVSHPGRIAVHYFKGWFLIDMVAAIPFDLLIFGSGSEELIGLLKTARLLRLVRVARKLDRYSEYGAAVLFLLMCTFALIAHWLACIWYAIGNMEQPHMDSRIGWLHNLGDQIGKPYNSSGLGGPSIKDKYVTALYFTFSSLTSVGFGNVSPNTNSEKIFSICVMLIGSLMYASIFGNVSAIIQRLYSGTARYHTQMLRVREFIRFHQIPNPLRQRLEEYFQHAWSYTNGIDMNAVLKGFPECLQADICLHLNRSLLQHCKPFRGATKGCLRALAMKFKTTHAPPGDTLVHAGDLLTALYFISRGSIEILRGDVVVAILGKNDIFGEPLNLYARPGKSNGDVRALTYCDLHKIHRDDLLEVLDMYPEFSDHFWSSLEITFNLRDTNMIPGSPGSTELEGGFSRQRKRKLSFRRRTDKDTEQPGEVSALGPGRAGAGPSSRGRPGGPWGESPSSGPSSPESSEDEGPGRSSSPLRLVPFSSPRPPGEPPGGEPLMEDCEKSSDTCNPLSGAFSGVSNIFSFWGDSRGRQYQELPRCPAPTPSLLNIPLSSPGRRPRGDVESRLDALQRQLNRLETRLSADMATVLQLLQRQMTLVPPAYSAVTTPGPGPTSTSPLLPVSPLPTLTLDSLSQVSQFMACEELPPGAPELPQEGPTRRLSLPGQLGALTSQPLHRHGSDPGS
As to the kind of experiment: hERG channel block, automated planar clamp (QPatch), CHO cell line. It is filed as cell-based. To be noted: hERG channel in stable CHO cell line. The protocol:
as §1
Blockade of the cardiac ion channel coded by the hERG gene can lead to cardiac arrhythmia. […] To determine the viability of inventive compounds as pharmacological agents that would not affect the hERG channel blockade, a standard automated planar clamp method was employed to determine the IC50 for various test compounds on their inhibition of the channel. An electrophysiological assay was prepared to measure the electric current passing through the hERG channel expressed in a stable CHO cell line by applying the planar clamp method. This assay was performed using the automated QPatch platform (Sophion, Denmark) which allows fast and accurate electrophysiological characterization of the hERG ion channel and the determination of IC50 values for the test compounds.

Data set [4] has as its system Escherichia coli ATCC-BAA-2340. As to the kind of experiment: MIC (50% NHS). The format is cell-based. To be noted: ATCCBAA2340; Escherichia coli ATCC-BAA-2340, 50% NHS.
Data set [5] deals with Serratia marcescens Bizio ATCC-29021. As to the kind of experiment: MIC (50% NHS). To be noted: ATCC29021; Serratia marcescens Bizio ATCC-29021, 50% NHS. The format is cell-based.
For data set [6], the system named is Staphylococcus aureus NRS-100. Briefly: MIC (50% NHS). The format is cell-based. To be noted: NRS100; Staphylococcus aureus NRS-100, 50% NHS.
Data set [7] can be described thus: in vivo. Also on record: species or system mice. The conditions noted are these: mouse, iv, 10 mg/kg; for half-life: T1/2. The protocol:
Compounds were tested in a pharmacokinetic (“PK”) study to determine the T1/2 of test compounds in mice. The PK study was performed at an approved contract research organization. Each test compound was dissolved in a vehicle to make a test antibiotic composition. The vehicle may be, for example, a water or a 5% solutol in saline solution Administration to each mouse is performed via intravenous (IV) cannulation of the tail vein. Blood is collected over K2-EDTA anticoagulant from the submandibular or sapheneous vein at predetermined time points. Following collection, the blood samples are stored at −70° C. until analysis by LC-MS and comparison to a standard calibration curve results in the T1/2 for each compound. The blood concentration of test compounds was measured at various times following 10 mg/kg (mouse) intravenous (IV) administration of each tested compound. […] The T1/2 for compound 17 was 34.2 hours, for compound 23 was 22.0 hours, and for compound 24 was 22.5 hours.

As to `CN1CC2CN(C(=O)Nc3cc(F)cc(F)c3)CC(C1)C2(O)c1ccc(-c2ccc(CN)cc2C#N)cc1` [Compound 23, (1R,5S,9r)-9-(4′-(aminomethyl)-2′-cyano-[1,1′-biphenyl]-4-yl)-N-(3,5-difluorophenyl)-9-hydroxy-7-methyl-3,7-diazabicyclo[3.3.1]nonane-3-carboxamide], the MIC (as a rule, the least concentration at which growth counts as inhibited) worked out at 2 µg/mL (≈ 3.86 µM) in data set [1], 0.25 µg/mL (≈ 0.483 µM) in data set [4], 4 µg/mL (≈ 7.73 µM) in data set [5] and 0.13 µg/mL (≈ 0.251 µM) in data set [6]. Further, in data set [2], the “human CLint” value is on record as 93. The IC50 (as a rule, the concentration needed to halve the response being measured) in data set [3] was > 30 µM. The clearance (usually the rate of elimination divided by the concentration) in data set [7] was 9.78 mL/min/kg. For the same compound, in data set [7], the half-life (commonly how long it takes for the measured level to halve) is 22 h.
As to `CNCc1ccc(-c2ccc(C3(O)C4CN(C)CC3CN(C(=O)Nc3cc(F)cc(F)c3)C4)nc2)c(C#N)c1` [Compound 17, (1R,5S,9r)-9-(5-(2-cyano-4-((methylamino)methyl)phenyl)pyridin-2-yl)-N-(3,5-difluorophenyl)-9-hydroxy-7-methyl-3,7-diazabicyclo[3.3.1]nonane-3-carboxamide], the MIC in data set [1] stood at 4 µg/mL (≈ 7.51 µM); in data set [4], 0.22 µg/mL (≈ 0.413 µM); in data set [5] it was 3.56 µg/mL (≈ 6.68 µM); in data set [6], 0.22 µg/mL (≈ 0.413 µM). For the same compound, in data set [2], the “human CLint” value is reported as 138. In data set [3], the concentration for half-maximal inhibition (IC50) was > 30 µM. In data set [7], this compound had a T1/2 of 34.2 h. In data set [7], this compound returned a clearance of 8.86 mL/min/kg. The compound also showed a half-life in data set [7] of 34 h.
For `CN1CC2CN(C(=O)Nc3cc(F)cc(F)c3)CC(C1)C2(O)c1ccc(-c2ccc(CN)cc2C#N)cn1` [Compound 24, (1R,5S,9r)-9-(5-(4-(aminomethyl)-2-cyanophenyl)pyridin-2-yl)-N-(3,5-difluorophenyl)-9-hydroxy-7-methyl-3,7-diazabicyclo[3.3.1]nonane-3-carboxamide], the MIC was determined as 2 µg/mL (≈ 3.86 µM) in data set [1], 0.25 µg/mL (≈ 0.482 µM) in data set [4], 16 µg/mL (≈ 30.9 µM) in data set [5] and 0.25 µg/mL (≈ 0.482 µM) in data set [6]. For the same compound, the “human CLint” value in data set [2] was found to be 144. For the same compound, in data set [3], the IC50 is > 30 µM. For the same compound, in data set [7], the clearance was 13.9 mL/min/kg. Moreover, in data set [7], the half-life was 22.5 h.
